Experiments:
CYP2C9 = molecular target: T1, CYP2C9 (Homo sapiens, UniProt P11712); experiment: CYP inhibition in HLM: S-warfarin 7-hydroxylation; format: in vitro ADME; settings: 10 or 50 μM
T1 construct: tissue Gentest Corp. (Woburn, Mass.); host or cells: pooled human liver microsomes
Method: The incubations were carried out in test tubes (12.0×75 mm). The incubation mixtures (250 μL) contained 0.5 mg of HLM protein, 50 (CYP1A2 and CYP2E1) or 25 (CYP2C9, CYP2C19, CYP2D6 and CYP3A4) pmol of recombinant human CYPs, Compound 1 (10 or 50 μM), probe substrate (R—, S-warfarin, chlorzoxazone, S-mephenyloin, or bufuralol) at different concentrations, and 0.5 mg of NADPH in 50 mM Tris buffer containing 15 mM MgCl2 (pH 7.4). Compound 1 was added to the reaction mixture 5 minutes prior to the addition of the probe substrate. […]
The quantification was based on the calibration curves, and the quality control (QC) samples were applied to ensure the quality of the experiments. […]
1. CYP1A2/2C9/3A4-mediated warfarin 6-, 7-, 8-, and 10-hydroxylation (Zhang et al., Drug Metab. Dispos. 23:1339-1346, 1995; Rettie et al., Chem. Res. Toxicol. 5:54-59, 1992; Brian et al., Biochemistry 29:11280-11292, 1990): Hewlett Packard 1100 HPLC system (Waldbronn, Germany) comprised a binary pump, an autosampler, a column compartment unit, a photodiode array detector (PDA), and a fluorescence detector. […] The warfarin metabolites, 6-, 8-, and 10-hydroxywarfarin, were monitored by UV at 313 nm, and 7-hydroxywarfarin by fluorescence at Ex320 nm/Em380 nm. […]

CYP1A1/2 = experiment: CYP induction in primary human hepatocytes, Western immunoblotting: CYP1A1/2; format: cell-based; settings: 10 or 50 μM for 72 hours; hepatocytes from three donors
Method: Upon receiving a primary culture of human hepatocytes in 6-well plates, the culture medium containing streptomycin/penicillin was refreshed (2 ml/well). […] Compound 1 stock solution was added to the culture medium at a 1:400 ratio (v/v). The culture medium and testing compounds were replenished every 24 hours.
At the end of the treatment, the cells were harvested into 1 mL of phosphate-buffered saline (PBS) after washing twice. The cells were precipitated by centrifugation, and were resuspended in PBS (approximately 50 μL). The sample preparation, after mixing with […] of Laemmli buffer (62.5 mM Tris-HCl containing 2% SDS, 25% glycerol, and 0.01% bromophenol, pH 6.8) and being rocked for 2-4 hours, was mixed with 10 μL of 2-mercaptoethanol, and heated at 90° C. for 10 minutes before electrophoresis.
Proteins were resolved in a 12% SDS-PAGE gel using a mini gel apparatus at a constant voltage ([…]) for 70-80 minutes, and transferred onto a polyvinylidene difluoride (PVDF) membrane using a membrane-transferring unit at a constant voltage ([…]) for 60 minutes. The membrane was blocked by 5% non-fat dried milk (NFDM) blotting buffer (PBS containing 0.05% Tween 20) at 4° C. overnight. […] CYP proteins were detected by […] using an X-ray developer.

T1 sequence (P11712 whole entry): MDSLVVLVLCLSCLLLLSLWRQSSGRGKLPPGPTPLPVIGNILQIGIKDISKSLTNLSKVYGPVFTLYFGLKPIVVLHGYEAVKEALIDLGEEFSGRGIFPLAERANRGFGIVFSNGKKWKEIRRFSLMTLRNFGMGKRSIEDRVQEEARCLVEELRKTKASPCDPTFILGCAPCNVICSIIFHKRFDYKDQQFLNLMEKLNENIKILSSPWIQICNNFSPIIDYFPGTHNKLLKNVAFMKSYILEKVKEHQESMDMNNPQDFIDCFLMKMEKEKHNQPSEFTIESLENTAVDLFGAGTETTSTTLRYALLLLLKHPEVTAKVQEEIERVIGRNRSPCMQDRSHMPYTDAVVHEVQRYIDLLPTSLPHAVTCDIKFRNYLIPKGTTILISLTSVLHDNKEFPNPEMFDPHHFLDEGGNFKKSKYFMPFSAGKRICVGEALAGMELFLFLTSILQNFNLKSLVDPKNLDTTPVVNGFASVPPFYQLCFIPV

Question: How did the “inhibitory effect on CYP2C9 activity (in words)” value (CYP2C9) turn out when CNC(=O)Cc1ccc2ccn(C3CCN(CCc4ccccc4F)CC3)c2c1 [Compound 1, N-methyl-[1-[1-(2-fluorophenethyl)piperidine-4-yl]-1H-indol-6-yl] acetamide] was run?
Answer: Its value is “no inhibitory effect”.

Question: And the “expression of CYP1A1/2 (Western immunoblotting)” value (CYP1A1/2)?
Answer: The value was “did not increase”.
